Experiments:
nitric oxide (NO) = experiment: Inhibition of NO production (nitrite, Griess reagent) in LPS-stimulated Raw 264.7 macrophage cells; type: cell-based, murine; conditions: for NO: 1 μg/ml LPS, 24 hours; for inhibition at 0.03 µg/mL / inhibition at 0.3 µg/mL / inhibition at 3 µg/mL: read-out: Inhibition rate (%) of NO production; for IC50: LPS-stimulated Raw 264.7 cells
Protocol: (§1) To investigate whether kaurane diterpene compounds obtained in Example 1 can inhibit the production of nitric oxide (NO) which induces apoptosis of the immune and neuron cells, the present inventors measured the amount of nitrite (NO2) accumulated in the culture medium of LPS-stimulated murine macrophage cells, which were treated with four kaurane diterpene compounds, kamebanin, kamebacetal A, kamebakaurin, or exisanin A.
In detail, Raw 264.7 murine macrophage cells (ATCC TIB-71) in DMEM medium were seeded to 96-well plate at a cell density of 1×10^5 cells/well and incubated for 3 hours at 37° C., 5% CO2 incubator. To induce NO synthesis in the macrophage cell, 1 μg/ml of LPS and 3 μg/ml, 0.3 μg/ml, and 0.03 μg/ml of kaurane diterpene compounds of the present invention were added to the medium and the plate was incubated for 24 hours. The amount of NO2, the final oxidation product of NO induced by the LPS in the medium was measured as followed. After collecting and centrifuging incubated medium, 100 μl of Griess reagent was added into 100 μl of each culture medium. Then, the medium was incubated for ten minutes at room temperature and absorbance at 550 nm wavelength was measured. Griess reagent was prepared by mixing a solution, wherein 1% sulfanilamide was dissolved in 5% phosphoric acid, and a solution of 0.1% naphyhylethylenediamine-HCl by a 1:1 ratio. To measure the amount of standard NO synthesis, NaNO2 was serially diluted and the absorbance was measured after reacting it with Griess reagent. From this, the standard curve for the amount of NO production was obtained. The amount of NO production in the culture medium treated with each compound was estimated using standard curve for NO determination.

prostaglandin E2 = experiment: Inhibition of prostaglandin E2 production in LPS-stimulated Raw 264.7 cells (enzyme immunometric assay); type: cell-based, murine; conditions: for PGE2: 1 μg/ml LPS, 16 hours; for inhibition at 0.03 µg/mL / inhibition at 0.3 µg/mL / inhibition at 3 µg/mL / IC50: Mus musculus, RAW264.7; for inhibition at 0.03 µg/mL / inhibition at 0.3 µg/mL / inhibition at 3 µg/mL: read-out: Inhibition rate (%) of prostaglandin E2 production; for IC50: LPS-stimulated Raw 264.7 cells
Protocol: as §1, with “prostaglandin,” for “nitric oxide (NO)”, “inflammatory reaction,” for “apoptosis of the immune and neuron cells,”, “prostaglandin E2” for “nitrite (NO2)”
In detail, Raw 264.7 cells in DMEM medium were seeded to a 96-well plate at a cell density of 1×10^5 cells/well and were incubated for 18 hours. Cyclooxygenase-1, the constitutive rate-determining enzyme of the prostaglandin synthesis was inactivated by incubating for 3 hrs with 500 μM of aspirin and each well was washed two times with PBS (phosphate-buffered saline). To each well were added 1 μg/ml of LPS and 3 μg/ml, 0.3 μg/ml, and 0.03 μg/ml concentrations of kaurane diterpene compounds of the present invention and was incubated for 16 hours. After collecting supernatant by centrifugation, the amount of prostaglandin in the culture medium was quantified by enzyme immunometric assay.

TNF-α = experiment: Inhibition of TNF-α production in LPS-stimulated Raw 264.7 cells (enzyme immunometric assay); type: cell-based, murine; conditions: for TNF-α: 1 μg/ml LPS, 16 hours; for inhibition at 0.03 µg/mL / inhibition at 0.3 µg/mL / inhibition at 3 µg/mL / IC50: Mus musculus, RAW264.7; for inhibition at 0.03 µg/mL / inhibition at 0.3 µg/mL / inhibition at 3 µg/mL: read-out: Inhibition rate (%) of TNF-α production; for IC50: LPS-stimulated Raw 264.7 cells
Protocol: To investigate whether kaurane diterpene compounds obtained in Example 1 can inhibit effectively the production of tumor necrosis factor-α (TNF-α), one of the inflammatory mediator, which confers cytotoxic effect and induces the production of prostaglandin and cytokines, the present inventors measured the amount of TNF-α accumulated in the culture medium of LPS-stimulated murine macrophage cells, which were treated with four kaurane diterpene compounds, kamebanin, kamebacetal A, kamebakaurin, or exisanin A.
In detail, Raw 264.7 cells in DMEM medium were seeded to a 96-well plate at a cell density of 1×10^5 cells/well and were incubated for 3 hours at 37° C. in a 5% CO2 incubator. To each well were added 1 μg/ml of LPS and 3 μg/ml, 0.3 μg/ml, and 0.03 μg/ml concentrations of kaurane diterpene compounds of the present invention and was incubated for 16 hours. After collecting supernatant by centrifugation, the amount of TNF-α in the culture medium was quantified by enzyme immunometric assay.

NF-κB = NF-κB activation, SEAP reporter in LPS-stimulated RAW-NF-AP cells; type: cell-based, murine; conditions: for inhibition at 0.03 µg/mL / inhibition at 0.3 µg/mL / inhibition at 3 µg/mL / IC50: Mus musculus; for inhibition at 0.03 µg/mL: 0.03 μg/ml compound; for inhibition at 0.03 µg/mL / inhibition at 0.3 µg/mL / inhibition at 3 µg/mL: 1 μg/ml LPS, 16 hours; for inhibition at 0.3 µg/mL: 0.3 μg/ml compound; for inhibition at 3 µg/mL: 3 μg/ml compound; for IC50: RAW-NF-AP cells, LPS
Protocol: RAW-NF-AP cells, which can be used effectively to detect the NF-κB dependent expression of reporter gene, (Korean Patent Application No. 1999-0006025), were seeded to a 96-well plate at a cell density of 1×10^5 cell/well and were incubated for 3 hours at 37° C. in a 5% CO2 incubator. Thereafter, 1 μg/ml concentration of LPS and 0.03 μg/ml, 0.3 μg/ml, and 3 μg/ml concentrations of kaurane diterpene compounds of the present invention were added to each well and was incubated for 16 hours. After collecting supernatant by centrifugation, the amount of secreted alkaline phosphatase (SEAP) in the culture medium of which expression is regulated by the activation of NF-κB was quantified.

adjuvant arthritis model = experiment: Adjuvant arthritis model, paw volume; type: in vivo, Sprague-Dawley rat; conditions: day 16-22, paw volume on 23rd day
Protocol: Finding the inhibitory effect of kaurane diterpene compounds on the production of NO, prostaglandin, and TNF, and on the activation of NF-κB in the murine macrophage cells stimulated by LPS, the present inventors investigated the pharmacological efficacy of kaurane diterpene compounds with a adjuvant arthritis model according to the method of Futaki et al. (General Pharmacology, 1993, 24, 105-110). To prepare animal model of the arthritis, 0.05 ml of 0.1% Mycobacterium butyricum suspended in Freud adjuvant (Sigma, USA) was injected intradermally to the left hind paw of the male Sprague-Dawley rat of 180 g weight. On the fifteenth day after injection, the volume of the right paw of the rats was measured using plethysmometer (Ugo-Basile, Italy), and only the rats having arthritis on the right leg were selected. Thereafter, the selected rats were divided into four groups, six rats per each group. Four kinds of kaurane diterpene compounds of the present invention were administered orally to each groups everyday from the sixteenth day to twenty-second day with doses of 3 mg/kg/day, 10 mg/kg/day, and 20 mg/kg/day in the form of the suspended solution with 0.1% methylcellulose. The inhibition rate of arthritis was calculated by comparing the volume of the paw with that of the control on the 23rd day.

[1] = Mus musculus, RAW264.7, 0.03 μg/ml compound
[2] = Mus musculus, RAW264.7, 0.3 μg/ml compound
[3] = Mus musculus, RAW264.7, 3 μg/ml compound

IC50 (prostaglandin E2) [µM] | Structure (SMILES) | NO (nitric oxide (NO); 0.03 μg/ml compound) [µM] | NO (nitric oxide (NO); 0.3 μg/ml compound) [µM] | NO (nitric oxide (NO); 3 μg/ml compound) [µM] | inhibition at 0.03 µg/mL (nitric oxide (NO); [1]) [%] | inhibition at 0.3 µg/mL (nitric oxide (NO); [2]) [%] | inhibition at 3 µg/mL (nitric oxide (NO); [3]) [%] | IC50 (nitric oxide (NO); Mus musculus, RAW264.7) [µM] | PGE2 (prostaglandin E2; 0.03 μg/ml compound) [ng/mL] | PGE2 (prostaglandin E2; 0.3 μg/ml compound) [ng/mL] | PGE2 (prostaglandin E2; 3 μg/ml compound) [ng/mL] | inhibition at 0.03 µg/mL (prostaglandin E2; 0.03 μg/ml compound) [%] | inhibition at 0.3 µg/mL (prostaglandin E2; 0.3 μg/ml compound) [%] | inhibition at 3 µg/mL (prostaglandin E2; 3 μg/ml compound) [%] | TNF-α (TNF-α; 0.03 μg/ml compound) [pg/mL] | TNF-α (TNF-α; 0.3 μg/ml compound) [pg/mL] | TNF-α (TNF-α; 3 μg/ml compound) [pg/mL] | inhibition at 0.03 µg/mL (TNF-α; 0.03 μg/ml compound) [%] | inhibition at 0.3 µg/mL (TNF-α; 0.3 μg/ml compound) [%] | inhibition at 3 µg/mL (TNF-α; 3 μg/ml compound) [%] | further results
5.37 | C=C1C(=O)[C@@]23C(C[C@H](O)[C@@H]1[C@H]2O)[C@@]1(C)C(C[C@H]3O)C(C)(C)CC[C@@H]1O (stereo partly shown) [Exisanin A, exisanin A] | 32.5 ± 3.5 | 22.2 ± 2.3 | 6.7 ± 0.8 | 37 | 59.3 | 92.5 | 0.35 | 13.7 ± 0.3 | 10.7 ± 1.3 | 5.7 ± 0.7 | -16.1 | 11.7 | 57.7 | 1243.0 ± 195.6 | 936.1 ± 0.00 | 103.2 ± 12.8 | 25.8 | 44.4 | 94.8 | IC50 (TNF-α): 0.61 µM; inhibition at 0.03 µg/mL (NF-κB): -2.6%; inhibition at 0.3 µg/mL (NF-κB): 19.4%; inhibition at 3 µg/mL (NF-κB): 93.7%; IC50 (NF-κB): 1.66 µM; Inhibition rate (%) of arthritis (adjuvant arthritis model; 3 mg/kg/day oral): 33 ± 14%; Inhibition rate (%) of arthritis (adjuvant arthritis model; 10 mg/kg/day oral): 52 ± 12%; Inhibition rate (%) of arthritis (adjuvant arthritis model; 20 mg/kg/day oral): 64 ± 13%
2.8 | C=C1C(=O)[C@@]23C4CC5C(C)(C)CC[C@H](O)[C@@]5(C(OC)O4)C2CC[C@@H]1[C@H]3O (stereo partly shown) [Kamebacetal A, kamebacetal A] | 38.5 ± 4.8 | 19.9 ± 3.7 | 3.3 ± 0.7 | 23.9 | 64.2 | 100 | 0.584 | 13.2 ± 0.8 | 9.8 ± 1.4 | 2.7 ± 0.4 | -11.3 | 19.6 | 85.6 | 1495.0 ± 239.7 | 691.4 ± 152.7 | 38.9 ± 1.0 | 10.5 | 59.2 | 98.7 | NO production compared with negative control (no LPS) (nitric oxide (NO); 3 μg/ml): nearly the same as that of the negative control; IC50 (nitric oxide (NO)): 0.58 µM; IC50 (TNF-α): 0.6 µM; SEAP activity compared with negative control (no LPS) (NF-κB; 3 μg/ml): to the extent of negative control; inhibition at 0.03 µg/mL (NF-κB): 1.3%; inhibition at 0.3 µg/mL (NF-κB): 62.2%; inhibition at 3 µg/mL (NF-κB): 110%; IC50 (NF-κB): 2.45 µM; Inhibition rate (%) of arthritis (adjuvant arthritis model; 3 mg/kg/day oral): 33 ± 18%; Inhibition rate (%) of arthritis (adjuvant arthritis model; 10 mg/kg/day oral): 55 ± 10%; Inhibition rate (%) of arthritis (adjuvant arthritis model; 20 mg/kg/day oral): 69 ± 14%
0.88 | C=C1C(=O)[C@@]23[C@H](O)C[C@@H]4C(C)(C)CC[C@H](O)[C@@]4(C)[C@@H]2CC[C@@H]1[C@H]3O [Kamebanin, kamebanin] | 23.4 ± 1.3 | 4.6 ± 0.6 | 3.6 ± 0.3 | 56.5 | 97.2 | 99.3 | 0.06 | 14.4 ± 2.2 | 4.0 ± 0.3 | 0.7 ± 0.1 | -22.5 | 73.9 | 104 | 1835.0 ± 158.8 | 805.6 ± 195.4 | 19.8 ± 0.7 | -10 | 52.3 | 99.8 | Prostaglandin production compared with negative control (no LPS) (prostaglandin E2; 3 μg/ml): nearly the same as that of the negative control; IC50 (TNF-α): 1 µM; inhibition at 0.03 µg/mL (NF-κB): 0.6%; inhibition at 0.3 µg/mL (NF-κB): 48.5%; inhibition at 3 µg/mL (NF-κB): 99.7%; IC50 (NF-κB): 0.72 µM; Inhibition rate (%) of arthritis (adjuvant arthritis model; 3 mg/kg/day oral): 30 ± 15%; Inhibition rate (%) of arthritis (adjuvant arthritis model; 10 mg/kg/day oral): 50 ± 12%; Inhibition rate (%) of arthritis (adjuvant arthritis model; 20 mg/kg/day oral): 68 ± 14%

From patent US6894073B2, “Use of diterpene compound as a therapeutic agent of inflammation, immune disease or cancer” (Korea Research Institute of Bioscience and Biotechnology, priority 2000, dated 2005)
